Experimental data reported in the NIST ThermoML archive (doi:10.1016/j.jct.2013.09.028).

What was measured:
[1] = refractive index (Na D-line) (dimensionless); conditions: 101.33 kPa, Liquid, Standard Abbe refractometry
[2] = 101.33 kPa, Liquid; for viscosity: Capillary tube (Ostwald / Ubbelohde) method; for speed of sound: Sing-around technique in a fixed-path interferometer; for mass density: Vibrating tube method

CCCCCc1c(C)cc(C)c[n+]1CCCC.O=S(=O)([N-]S(=O)(=O)C(F)(F)F)C(F)(F)F
Conditions	mass density, [2] [kg/m3]	refractive index, [1]	speed of sound, [2] [m/s]	viscosity, [2] [mPa·s]
298.15 K	1288.23	1.4604	1293	253
303.15 K	1283.93	1.45878	1279	186
308.15 K	1279.63	1.45714	1266	138
313.15 K	1275.33	1.45549	1253	105
318.15 K	1271.04	1.45386	1240	80.8
323.15 K	1266.77	1.45226	1228	63.7
328.15 K	1262.51	1.45065	1215	51
333.15 K	1258.26	1.44902	1203	41.5
338.15 K	1254.01	1.44744	1191	34.2
343.15 K	1249.77	1.44588	1179	28.6

CCCCCc1c(C)cc(C)c[n+]1CC.O=S(=O)([N-]S(=O)(=O)C(F)(F)F)C(F)(F)F
Conditions	mass density, [2] [kg/m3]	refractive index, [1]	speed of sound, [2] [m/s]	viscosity, [2] [mPa·s]
298.15 K	1323.9	1.46108	1309	260
303.15 K	1319.56	1.45947	1296	187
308.15 K	1315.21	1.45787	1283	138
313.15 K	1310.86	1.45627	1270	104
318.15 K	1306.53	1.45463	1258	79.9
323.15 K	1302.2	1.45304	1245	62.8
328.15 K	1297.9	1.45139	1233	50.1
333.15 K	1293.6	1.44979	1221	40.7
338.15 K	1289.3	1.44822	1209	33.5
343.15 K	1285.03	1.44667	1198	28

CCCCCC[n+]1cc(C)cc(C)c1C.O=S(=O)([N-]S(=O)(=O)C(F)(F)F)C(F)(F)F
Conditions	mass density, [2] [kg/m3]	refractive index, [1]	speed of sound, [2] [m/s]	viscosity, [2] [mPa·s]
298.15 K	1336.18	1.46466	1288	174
303.15 K	1331.83	1.46311	1276	129
308.15 K	1327.48	1.4615	1264	98.2
313.15 K	1323.15	1.4599	1252	76.2
318.15 K	1318.83	1.45826	1240	60.2
323.15 K	1314.52	1.45671	1229	48.3
328.15 K	1310.23	1.45514	1218	39.3
333.15 K	1305.85	1.45357	1206	32.4
338.15 K	1301.66	1.452	1195	27.1
343.15 K	1297.4	1.45044	1184	23

CCCCCC[n+]1cc(C)cc(C)c1CCCCC.O=S(=O)([N-]S(=O)(=O)C(F)(F)F)C(F)(F)F
Conditions	mass density, [2] [kg/m3]	refractive index, [1]	speed of sound, [2] [m/s]	viscosity, [2] [mPa·s]
298.15 K	1253.47	1.46074	1291	278
303.15 K	1249.29	1.4591	1277	204
308.15 K	1245.09	1.45746	1264	151
313.15 K	1240.9	1.45583	1251	115
318.15 K	1236.71	1.45417	1238	88.5
323.15 K	1232.53	1.45255	1225	69.6
328.15 K	1228.37	1.45093	1213	55.7
333.15 K	1224.22	1.4493	1201	45.2
338.15 K	1220.07	1.44769	1188	37.1
343.15 K	1215.94	1.44607	1176	30.9
